Results: US10071989B2, “Substituted cinnamamide derivative, preparation method and use thereof” (TASLY PHARMACEUTICAL GROUP CO., LTD., priority 2011, dated 2018)
“Also recorded” adds a separate entry of the source. Read-outs that look alike come from different tables or passages of the source. Marks after values point to notes of the source that are not given here.

Experiments:
Format in all cases: in vivo
mice = assay: Anti-depression effect in the tested models (overall conclusion); conditions: in the tested model at the tested dose
Source text: Based on the aforesaid experiments, the following conclusion can be drawn: • 1.

C57BL/6 mice [1] = assay: Depression model test of anti-blepharoptosis caused by reserpine (akinesia, blepharoptosis, shell temperature); conditions: for Blepharoptosis, “out-of-circle” ratio and shell temperature after reserpine (effect in words) / Change in the shell temperature (T ° C.) / Degree of eye-closure / responders at 10 mg/kg / Change in the shell temperature (ΔT ° C.): 10 mg/kg intragastric 7 days; for Improving akinesia, blepharoptosis and shell temperature: ranking among the tested compounds (in words): within the experiment; for Change in the shell temperature (T ° C.) / Degree of eye-closure / responders at 10 mg/kg / Change in the shell temperature (ΔT ° C.): reserpine 4 mg/kg i.p.; for Change in the shell temperature (T ° C.) / Change in the shell temperature (ΔT ° C.): abdomen, two hours after reserpine; for Change in the shell temperature (T ° C.) / Degree of eye-closure / Change in the shell temperature (ΔT ° C.): ±SD; for Degree of eye-closure: score 0-4 one hour after reserpine; for responders at 10 mg/kg: Mus musculus, po, 1 h, one hour after reserpine, 7.5 cm circle, 15-second observation, read-out: “out-of-circle” ratio; for “out-of-circle” ratio after reserpine compared with I-1 (in words): compared with I-1, p<0.05
Procedure: 120 male C57BL/6 mice were randomly selected to observe the number of their autonomic activity. The mice was placed into the YLS-1A multi-functional mice autonomic activity recorder, and after 1 min of adaption, the activity of the mice was counted within a time period from the end of 1st min to 4th min. 96 mice with the number of autonomic activity between 70˜140 were screened out, divided randomly into 8 groups, and intragastrically administrated with the drug compounds at a dose listed in Table 3, one time daily for 7 days consecutively. The solvent control group was administrated with 2% Tween-80 aqueous solution in the same volume. Except the normal control group, 30 min after the last administration, each group was injected intraperitoneally with reserpine at a dose of 4 mg/kg. Next, akinesia, blepharoptosis and shell temperature were observed.
I Akinesia: one hour after intraperitoneal injection of reserpine, the mice were placed at the center of a circle with a diameter of 7.5 cm for a 15-second observation to calculate the “out-of-circle” ratio.
II Blepharoptosis: one hour after intraperitoneal injection of reserpine, the eye closure of mice was observed and scored by the following standard: eyelids open, 0; eyelids ¼ closed, 1; eyelids 2/4 closed, 2; eyelids ¾ closed, 3; eyelids closed completely, 4.
III Shell temperature: two hours after intraperitoneal injection of reserpine, the shell temperature of the abdomen of the mice was measured.
120 C57BL/6 mice were randomly selected to observe the number of their autonomic activity. The method was the same with that of Experiment 1. 100 mice with the number of autonomic activity between 70˜140 were screened out, divided randomly into 10 groups, and intragastrically administrated with the drug compounds at a dose listed in Table 4, one time daily for 7 days consecutively. The mice in the normal group and the solvent control group were administrated with 2% Tween-80 aqueous solution in the same volume. Except the normal control group, 30 min after the last administration, each group was injected intraperitoneally with reserpine at a dose of 4 mg/kg. Next, akinesia, blepharoptosis and shell temperature were observed. Observation method was the same with that of Experiment 1.

C57BL/6 mice [2] = assay: "Acquired despair" depression model of tail suspension test in mice; conditions: for Effect on immobility time in tail suspension test (in words): 10 mg/kg intragastric for 7 days, compared with the solvent control group; for Effect on antagonizing immobility in tail suspension test compared with I-1 (in words): 10 mg/kg, compared with I-1, p<0.05
Procedure: 30 min after administration at 7th day, the mice was fixed on a sustainer with a rubberized cloth at 1 cm close to the end of the tail of mice, making the mice hanged upside down. The head of the mice was about 30 cm above the table and its sight was separated from the neighboring mouse with a plate. Usually, the mice might manage to struggle in hopes of overcoming the abnormal body position. […] The accumulated immobility time within 6 min of each mouse was observed, which was regarded as “despair time”.
(§1) 130 mice were randomly selected to observe the number of their autonomic activity. The method was the same with that of Experiment 1. 108 mice with the number of autonomic activity between 70˜140 were screened out, divided randomly into 9 groups, and intragastrically administrated with the drug compounds at a dose listed in Table 2, one time daily for 7 days consecutively. The solvent control group was administrated with 2% Tween-80 aqueous solution in the same volume. 30 min after administration at 6th day, the number of the autonomic activity of each mouse was observed. 30 min after administration at 7th day, the immobility time in tail suspension test was observed. The method was the same with that in Experiment 1.

C57BL/6 mice [3] = assay: Number of autonomic activity of mice (YLS-1A autonomic activity recorder); conditions: for Effect on autonomic activity of mice (in words): 10 mg/kg intragastric, one week, compared with the solvent control group; for Number of Autonomic activity (time): 10 mg/kg intragastric once daily, counted 30 min after administration at 6th day
Procedure: 110 mice were randomly selected to observe the number of their autonomic activity. The mice was placed into the YLS-1A multi-functional mice autonomic activity recorder, and after 1 min of adaption, the mice's activity was counted within a time period from the end of 1st min to 4th min. 96 mice with the number of autonomic activity between 70˜140 were screened out, divided randomly into 8 groups, and intragastrically administrated with the drug compounds at a dose listed in Table 1, one time daily for 7 days consecutively. The solvent control group was administrated with 2% Tween-80 aqueous solution in the same volume. All mice were placed into the autonomic activity recorder 30 min after administration at 6th day. After 1 min of adaption, the mice's activity was counted within a time period from the end of 1st min to 4th min.
as §1

C57BL/6 mice [4] = assay: Forced swimming experiment in mice; conditions: for Immobility time in the forced swimming test in mice(s): 30 min after last administration, end of 2nd min to 6th min; for Effect on immobility time in the forced swimming test (in words): within the dosage range (5-10 mg/kg), compared with the solvent control group
Procedure: After 1˜2 days of adaptive feed, 80 male C57BL/6 mice, aged 6˜8 weeks and weighing 18˜22 g, were placed into the YLS-1A multi-functional mice autonomic activity recorder. After 1 min of adaption, the activity of the mice was counted within a time period from the end of 1st min to 4th min. 60 mice with the number of autonomic activity between 70˜140 were screened out, divided randomly into 6 groups, and intragastrically administrated with the drug compounds at a dose listed in Table 5, one time daily for 7 days consecutively. The solvent control group was administrated with 2% Tween-80 aqueous solution in the same volume. After the administration at 6th day, the mice were placed into a cylindrical aquarium with a water depth of 10 cm and 25° C. to force the mice to swim. After 15 min, the mice were taken out, dried and returned to the cage. 24 hours later, 30 min after the last intragastrical administration, the mice were placed into a glass bottle with a diameter of 10 cm, a height of 30 cm and a water depth of 10 cm, and the temperature of the water in the bottle was at 25° C. The mice were separated with an opaque partition, so as not to influence each other. After 2 min of adaption, an accumulated immobility time from the end of 2nd min to 6th min was recorded.

[5] = compared with the solvent control group
[6] = Experiment 1, end of 1st min to 4th min
[7] = 10 mg/kg intragastric once daily for 7 days
[8] = 10 mg/kg, compared with the solvent control group

Row | Compound | Anti-depression effect compared with the pharmacologic effect of I-1 (in words) (mice) | Blepharoptosis, “out-of-circle” ratio and shell temperature after reserpine (effect in words) (C57BL/6 mice [1]; [5]) | Improving akinesia, blepharoptosis and shell temperature: ranking among the tested compounds (in words) (C57BL/6 mice [1]; 10 mg/kg) | Change in the shell temperature (T ° C.) (C57BL/6 mice [1]; Experiment 2) | Degree of eye-closure (C57BL/6 mice [1]; Experiment 2) | responders at 10 mg/kg (C57BL/6 mice [1]; Experiment 2) | Effect on immobility time in tail suspension test (in words) (C57BL/6 mice [2]) | Effect on autonomic activity of mice (in words) (C57BL/6 mice [3]) | Number of Autonomic activity (time) (C57BL/6 mice [3]; Experiment 2) | Degree of eye closure / blepharoptosis after reserpine compared with I-1 (in words) (C57BL/6 mice [1]; 10 mg/kg) | “out-of-circle” ratio after reserpine compared with I-1 (in words) (C57BL/6 mice [1]; 10 mg/kg) | Change in the shell temperature (ΔT ° C.) (C57BL/6 mice [1]; Experiment 1) | Degree of eye-closure (C57BL/6 mice [1]; Experiment 1) | responders at 10 mg/kg (C57BL/6 mice [1]; Experiment 1) | Effect on antagonizing immobility in tail suspension test compared with I-1 (in words) (C57BL/6 mice [2]) | Number of Autonomic activity (time) (C57BL/6 mice [3]; [6]) | Immobility time in the forced swimming test in mice(s) (C57BL/6 mice [4]; [7]) | Effect on immobility time in the forced swimming test (in words) (C57BL/6 mice [4]) | also measured
1 | CC(C)CNC(=O)CCc1cc2c(c(C(F)(F)F)c1)OCO2 [Compound I-11, N-isobutyl-3-(5′-trifluoromethyl-3′,4′-methylenedioxyphenyl)-propionamide] | increased to some degree | remarkably improve; also recorded: antagonizing the decrease of shell temperature, akinesia and improving the degree of eye closure | better effects | 30.20 ± 0.95 °C | 1.40 ± 0.97 | 50% | reduce the immobility time of the mice in tail suspension test significantly; also recorded: significantly shorten the immobility time | had no effect | 86.60 ± 23.08 time | – | – | – | – | – | – | – | – | – | Blepharoptosis, shell temperature and “out-of-circle” ratio compared with Compound I-1 (in words) (C57BL/6 mice [1]; 10 mg/kg, compared with I-1, p<0.05, p<0.01): significantly improved effect
2 | CC(C)CNC(=O)/C=C/c1cc(Cl)c2c(c1)OCO2 [Compound I-4, N-isobutyl-5′-chloro-3′,4′-methylenedioxy cinnamamide] | increased to some degree | improved significantly; also recorded: antagonizing the decrease of shell temperature, akinesia and improving the degree of eye closure | best effect | – | – | – | remarkably reduce the immobility time; also recorded: significantly shorten the immobility time | had no affect | – | reduced | increased markedly | 1.51 ± 0.31 °C | 0.17 ± 0.39**^ΔΔ | 100% | better effect | 94.75 ± 28.53 time | – | – | –
3 | O=C(/C=C/c1cc2c(c(C(F)(F)F)c1)OCO2)N1CCCCC1 [Compound I-10] | increased to some degree | antagonizing the decrease of shell temperature, akinesia and improving the degree of eye closure | – | 27.15 ± 1.20 °C | 1.80 ± 1.32 | 30% | reduce the immobility time of the mice in tail suspension test significantly; also recorded: significantly shorten the immobility time | had no effect | 95.30 ± 15.06 time | increased improvement | – | – | – | – | – | – | 83.07 ± 31.03 s | shortening the immobility time; also recorded: shorten the immobility time | Blepharoptosis after reserpine (effect in words) (C57BL/6 mice [1]; [8]): improve blepharoptosis of the mice significantly; Shell temperature and “out-of-circle” ratio after reserpine (effect in words) (C57BL/6 mice [1]; [8]): to a certain degree but without statistically significant difference
4 | CC(C)CNC(=O)/C=C/c1cc2c(c(C(F)(F)F)c1)OCO2 [Compound I-5, N-isobutyl-5′-trifluoromethyl-3′,4′-methylenedioxy cinnamamide] | increased to some degree | improved significantly; also recorded: antagonizing the decrease of shell temperature, akinesia and improving the degree of eye closure | best effect | – | – | – | remarkably reduce the immobility time; also recorded: reduce the immobility time of the mice in tail suspension test significantly; also recorded: significantly shorten the immobility time | had no affect; also recorded: had no effect | 99.40 ± 19.67 time | reduced | increased markedly | 1.32 ± 0.16 °C | 0.42 ± 0.79**^ΔΔ | 92% | better effect | 94.75 ± 23.98 time | 78.58 ± 35.70 s | shortening the immobility time; also recorded: shorten the immobility time | Immobility time in the forced swimming test in mice(s) (C57BL/6 mice [4]; 5 mg/kg (low dose) intragastric once daily for 7 days): 91.20 ± 43.09 s; Dose dependence of the effect on immobility time in the forced swimming test (C57BL/6 mice [4]; 5 and 10 mg/kg): dose-dependent effect
